Experimental data: article PMC10931776, “Modes of Interactions with DNA/HSA Biomolecules and Comparative Cytotoxic Studies of Newly Synthesized Mononuclear Zinc(II) and Heteronuclear Platinum(II)/Zinc(II) Complexes toward Colorectal Cancer Cells” (International Journal of Molecular Sciences, 2024)

Columns and labels:
[1] = tested on: CT-DNA; experiment: Ethidium bromide/CT-DNA fluorescence quenching (EB displacement); format: binding; details: EB/CT-DNA 1:1, 5 µM, PBS pH 7.4, room temperature, λex 527 nm, λem 612 nm
Source text: Fluorescent spectroscopy allows the determination of the intercalation potential of compounds. Intercalation involves planar aromatic molecules binding between the base pairs of DNA chains, causing them to elongate. Ethidium bromide (EB) is commonly used as a DNA intercalator and produces high levels of fluorescent emissions at 612 nm when intercalating between DNA strands. However, the addition of compounds that can intercalate between DNA strands and suppress the effects of EB will reduce fluorescent emissions. If a complex is able to replace EB, fluorescence reduction will occur, indicating the complex’s ability to bind intercalatively. Figure 3 and Figures S10–S13 show the results of fluorescence titrations in the presence of intercalator EB, where the emission intensity of a constant CT-DNA/EB solution concentration of 5 µM was monitored with increasing complex concentration up to a ratio of 5.
To determine whether the complex could displace EB from the CT-DNA-EB complex, the interactions of the complex with CT-DNA were examined in the presence of EB. The CT-DNA-EB solution was formed by combining EB and CT-DNA solutions with a concentration of 5 μM at a pH of 7.4. The impact of the complex binding to the CT-DNA was measured by analyzing the fluorescence emission spectrum after the addition of the examined complexes solution in increasing concentration, Figure 3.
The binding affinity of the complexes C1–C5 to CT-DNA via intercalation was determined using fluorescence spectroscopy. All measurements were conducted at room temperature in 0.01 M PBS with a pH of 7.4. Fluorescence measurements were performed by adding increasing complex concentrations (0–50 μM) to a CT-DNA and EB solution. Before each measurement, the system was shaken at room temperature. The fluorescence intensity was measured with the wavelength of excitation at 527 nm and the wavelength of emission at 612 nm. The width of the excitation and emission slits (10 nm) and scan rate were maintained at a constant rate. The emission of the solution was recorded in the range of 550 to 750 nm. The Stern–Volmer constants, Ksv, were determined by Equation (2). I0/I = 1 + Ksv[Q](2) [Q] is the concentration of the complex, I0 and I represent emission intensities in the absence and presence of complex, and Ksv is the Stern–Volmer constant obtained from the slope of the plot of I0/I vs. [Q] [25, 26, 27, 28].

[2] = tested on: mouse colorectal carcinoma (CT26); experiment: MTT cytotoxicity assay, CT26; format: cell-based; details: 48 h
Method: (§1) The in vitro cytotoxicity of newly synthesized mono- and heteronuclear platinum(II)/and zinc(II) complexes, featuring a 4,4′,4″-tri-tert-butyl-2,2′:6′,2″-terpyridine ligand (designated as C1–C5), was assessed using MTT assay procedures. This evaluation targeted various cell lines: mouse colorectal carcinoma (CT26), human colorectal carcinoma (HCT116 and SW480), and non-cancerous mouse mesenchymal stem cells (mMSC). These cell lines were exposed to synthesized complexes for 48 h, with concentrations ranging from 1.17 to 150 μM.
(§2) In our study, various cell lines were cultured, including mouse colorectal carcinoma (CT26), human colorectal carcinoma (HCT116 and SW480) obtained from ATCC, USA, and mouse mesenchymal stem cells (mMSC, Gibco), New York, NY, USA). These cell lines were consistently maintained in complete Dulbecco’s Modified Eagle Medium (DMEM) supplemented with 10% fetal bovine serum (FBS) (Sigma Aldrich, St. Louis, MO, USA), 100 IU/mL penicillin, and 100 μg/mL streptomycin antibiotics (Invitrogen, Carlsbad, CA, USA). The cultures were incubated at 37 °C in a humidified atmosphere of 5% carbon dioxide (CO2). […] The viability and count of the cells were determined using Trypan blue staining, ensuring the accuracy and reliability of the experimental outcomes.
(§3) The cytotoxic effects of five newly synthesized complexes, alongside cisplatin, were assessed through the MTT assay method, in line with previously established protocols. During the exponential growth phase, cells were collected from culture flasks, counted, and then seeded in 96-well culture plates at a density of 5·10^3 cells per well. Subsequent treatment involved exposing these cells to varying concentrations of the newly synthesized complexes and cisplatin (ranging from 1.17 to 150 μM) for a duration of 48 h, with fresh complete medium serving as the control. The results were quantified relative to the control (untreated cells), providing a comparative measure of cytotoxicity. Additionally, IC50 values, representing the concentration required to inhibit 50% of the cell viability, were calculated using Microsoft Office Excel 2010. Lastly, the data were presented as percentages of viable cells in accordance with the methodology outlined in the referenced study, facilitating a comprehensive understanding of the anticancer potential of these compounds.

[3] = tested on: human colorectal carcinoma (HCT116); experiment: MTT cytotoxicity assay, HCT116; format: cell-based; details: 48 h
Method: as §1, §2, §3

[4] = tested on: mouse mesenchymal stem cells (mMSC); experiment: MTT cytotoxicity assay, mMSC; format: cell-based; details: 48 h
Method: as §1
In the context of developing low-toxicity drugs, it is imperative to evaluate the antiproliferative activity against normal cells. The in vitro toxicity of the tested complexes toward normal mouse mesenchymal stem cells (mMSC) was examined. […] These findings indicate the possibility of enhanced in vivo tolerance for this complex.
as §2, §3

## [ZnCl2(terpy^t^Bu)] [C1]
[1]
  Stern–Volmer constant Ksv, CT-DNA: 2.2 ± 0.1 10^4 M^–1
[2]
  Selectivity Index (IC50 mMSC/IC50), CT26: 1.3
[2]; read-out: IC50 ± SEM, CT26
  IC50: 44.7 ± 58.7 µM
[3]
  Selectivity Index (IC50 mMSC/IC50), HCT 116: 0.6
[3]; read-out: IC50 ± SEM, HCT 116
  IC50: 88.2 ± 48.5 µM
[4]; concentrations 1.17 to 18.75 μM
  Cytotoxic effect on mMSC compared to cancer cells (HCT116, SW480, CT26): lower cytotoxic effect
[4]; non-cancerous cells, read-out: IC50 ± SEM, mMSCs
  IC50: 56.7 ± 6.93 µM
